The test system of experiment [1] is THAIC construct in HEK293 cells with mouse TRα. As to the kind of experiment: Luciferase promoter assay in HEK293 cells transfected with THAIC and mouse TRα plasmid. Type of experiment: cell-based, human. Conditions: HEK293 transfected with THAIC, SB100 and mouse TRα plasmid; 100 nM T3. How it is done: The THAIC construct was transfected to the human HEK293 cells along with a pCMV(CAT)T7-SB100 Sleeping Beauty transposon expressing vector and a mouse TRα encoding plasmid. Transfection and cell culturing of HEK293 cells was performed according to our established protocol (36). (FIG. 10)
(B) We also used zeocin-assisted selection and obtained cultures stably expressing Luciferase and generated the HEK293-THAIC cell line stably expressing the TH action indicator construct of the THAM model. The reporter of the cell line is responsive to TH in a TR dependent manner.

The test system of experiment [2] is thyroid hormone receptor isoform specific action (TRβ dominant liver, TRα dominant heart; Luciferase reporter). The experiment can be described thus: Testing TR isoform specific agonists: Luciferase activity in liver and heart of line #4 with decreased endogenous thyroid hormone. In kind it is in vivo, mouse. The settings on record: T3 administration. How it is done:
FIG. 7. The transgenic mouse model is capable to detect thyroid hormone receptor isoform specific T3 actions. […] Mean±SEM (n=5) ** p<0.01 by t test.
We decreased the endogenous thyroid hormone levels in line #4 by administering methimazole and perchlorate (0.1% methimazole, 0.5% perchlorate) in the drinking water followed by the i.p. injection of 1.53 nM/g BW of GC-24, a TRβ specific agonist (35). Luciferase activity assay was performed using our established protocol (34) modified for tissue samples, that included treatment of mouse tissue with liquid nitrogen, followed by sonication. In vivo Luciferase imaging has been performed on an IVIS Lumina II In vivo Imaging System (PerkinElmer Waltham, Mass., USA) according to the instructions of the manufacturer.

Experiment [3] concerns luciferase mRNA as a readout of TH action. The experiment can be described thus: Luciferase mRNA by TaqMan qPCR in the pituitary of line #23. In kind it is in vivo, mouse. Conditions: TaqMan assay. How it is done: Expression was assessed with TaqMan assay, Luciferase expression level was denominated with GAPDH expression used as housekeeping gene. Mean±SEM (n=5) *** p<0.0001 by t test.
We also studied whether detection of luciferase mRNA can be used to detect as a readout of TH action in the generated transgenic model. […] TaqMan qPCR was performed on a ViiA 7 Real-Time PCR System (Life Technologies) according to the instructions of the manufacturer. In short, reverse transcription was performed with High Capacity cDNA Reverse Transcriptase Kit (Applied Biosystems by Life Technologies) and concentration of the cDNA was determined using the Qubit 2.0 Fluorometer with the Qubit ssDNA Assay Kit (Life Technologies). A custom Luciferase coding probe was used along with a commercially available probe for Glyceraldehyde-3-phosphate dehydrogenase (GAPDH), later used as housekeeping gene.

Experiment [4] has as its system TH action in live animals (Luciferase reporter). As to the kind of experiment: In vivo bioluminescence imaging of Luciferase in live line #4 mice. Also on record: species or system mouse. The settings on record: 1 μg/g BW T3 i.p., luciferin 24 h later. How it is done:
Mean±SEM (n=4) ** p<0.01 **p<0.0001 by t test.
After 15 min, mice were anesthetized with ketamine followed by detection with […] In vivo Imaging System (PerkinElmer Waltham, Mass., USA).

Molecules are shown by their SMILES.

As to `N[C@@H](Cc1cc(I)c(Oc2ccc(O)c(I)c2)c(I)c1)C(=O)O` [T3, 3,5,3′-triiodothyronine], the “induction of Luciferase expression” value in experiment [1] is “approximately 4 fold”. Also, in experiment [2], the “luciferase activity in both tissues (liver and heart)” value is recorded as “significant increase”. Further, in experiment [3] (1 μg/g bw T3 i.p., GAPDH housekeeping), the “induction of luciferase mRNA in the pituitary” value was approximately 50 fold. Further, the “Luciferase mRNA level in the pituitary” value in experiment [3] (T3-treatment, denominated with GAPDH) is given as “robustly increased”. For the same molecule, in experiment [4], the “reporter activity in the BAT and intestine (in vivo imaging)” value is listed as “very intense increase”; the “reporter activity in the mandibular salivary gland (MSG) and skin of the tail and foot pads (in vivo imaging)” value was “up-regulated”.

The values above are taken from patent publication US10694724B2, “Transgenic mouse for the assessment of thyroid hormone (TH) action” (MAGYAR TUDOMÁNYOS AKADÉMIA KÍSÉRLETI ORVOSTUDOMÁNYI KUTATÓ …, priority 2014, dated 2020).
